Positions of bridges follow the written chain, without caps; N, C: chain ends. Non-standard residues stand in square brackets, D forms with d. Residues, ends and D or L forms follow the SMILES beside them. Nle = CCCC[C@H](N)C(=O)O; Aib = CC(C)(N)C(=O)O

The target of assay [1] is T1, human GLP2 receptor (Homo sapiens, UniProt O95838).
T1 construct: expressed in transfected cells; host or cells: HEK cells, BacMam virus transduction
T1 sequence (O95838 1-553): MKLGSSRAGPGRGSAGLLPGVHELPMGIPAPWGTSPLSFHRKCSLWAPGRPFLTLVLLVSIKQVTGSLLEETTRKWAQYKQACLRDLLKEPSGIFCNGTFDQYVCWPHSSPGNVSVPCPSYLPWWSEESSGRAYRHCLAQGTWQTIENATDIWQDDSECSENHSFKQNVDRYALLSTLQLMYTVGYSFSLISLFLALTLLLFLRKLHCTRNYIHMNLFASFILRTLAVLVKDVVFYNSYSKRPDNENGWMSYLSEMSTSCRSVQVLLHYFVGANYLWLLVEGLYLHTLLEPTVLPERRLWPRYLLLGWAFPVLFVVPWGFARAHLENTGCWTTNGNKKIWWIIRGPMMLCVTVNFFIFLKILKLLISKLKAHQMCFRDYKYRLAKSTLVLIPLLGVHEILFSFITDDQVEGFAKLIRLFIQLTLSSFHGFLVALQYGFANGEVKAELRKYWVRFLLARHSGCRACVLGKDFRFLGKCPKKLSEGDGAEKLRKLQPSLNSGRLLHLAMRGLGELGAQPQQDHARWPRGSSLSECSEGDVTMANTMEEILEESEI
Kind of assay: cAMP accumulation assay, functional agonism of human GLP2 receptor. Format: cell-based. The note with it: HEK cells infected with human GLP2 receptor BacMam virus, HTRF cAMP; for Emax: HEK293, read-out: Human GLP-2R agonist cAMP Emax; for EC50: read-out: Human GLP-2R agonist cAMP pEC50 (converted). In outline:
(§1)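 Agonist-driven cAMP production was quantified by homogeneous time-resolved fluorescence. Receptor expression in HEK cells came from a 24-hour BacMam infection, and cells were frozen ahead of the assay. Incubation lasted 45 min at 37° C in HBSS supplemented with 0.5 mM IBMX.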
Background: cAMP levels reflect the balance of adenylyl cyclase and phosphodiesterase activity.

In assay [2] the target is T2, human GLP1 receptor (Homo sapiens, UniProt P43220).
T2 construct: expressed in transfected cells; host or cells: HEK cells, BacMam virus transduction
T2 sequence (P43220 24-463): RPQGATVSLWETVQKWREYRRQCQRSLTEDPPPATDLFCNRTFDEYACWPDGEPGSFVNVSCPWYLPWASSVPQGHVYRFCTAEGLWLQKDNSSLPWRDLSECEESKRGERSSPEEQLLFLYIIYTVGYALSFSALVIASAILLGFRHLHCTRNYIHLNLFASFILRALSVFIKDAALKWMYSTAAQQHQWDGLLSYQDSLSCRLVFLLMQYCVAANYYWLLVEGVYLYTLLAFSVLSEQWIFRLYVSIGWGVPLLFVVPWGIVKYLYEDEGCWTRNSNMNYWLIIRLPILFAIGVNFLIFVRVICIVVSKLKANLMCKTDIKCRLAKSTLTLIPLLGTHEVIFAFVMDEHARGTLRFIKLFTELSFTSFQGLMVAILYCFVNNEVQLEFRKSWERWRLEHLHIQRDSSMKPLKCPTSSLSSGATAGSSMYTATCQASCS
As to the kind of experiment: cAMP accumulation assay, functional agonism of human GLP1 receptor. Format: cell-based. The note with it: HEK cells infected with human GLP1 receptor BacMam virus, HTRF cAMP; for Emax: HEK293, read-out: Human GLP-1R agonist cAMP Emax; for EC50: read-out: Human GLP-1R agonist cAMP pEC50 (converted). In a few lines:
as §1

`CCCC[C@H](NC(=O)[C@H](CCC(=O)O)NC(=O)[C@H](CC(=O)O)NC(=O)[C@H](CO)NC(=O)[C@H](Cc1ccccc1)NC(=O)[C@H](CO)NC(=O)CNC(=O)[C@H](CC(=O)O)NC(=O)C(C)(C)NC(=O)[C@@H](N)Cc1c[nH]cn1)C(=O)N[C@H](Cc1ccccc1)C(=O)N[C@H]1CC(=O)NCCCC[C@@H](C(=O)N[C@@H](CCCCN)C(=O)N[C@@H](C)C(=O)N[C@@H](C)C(=O)N[C@@H](CCCCN)C(=O)N[C@@H](CC(=O)O)C(=O)N[C@@H](Cc2ccccc2)C(=O)N[C@H](C(=O)N[C@@H](CC(N)=O)C(=O)N[C@@H](Cc2c[nH]c3ccccc23)C(=O)N[C@@H](CC(C)C)C(=O)N[C@H](C(=O)N[C@@H](CCC(N)=O)C(=O)N[C@H](C(=O)N[C@@H](CCCCN)C(=O)N[C@H](C(=O)N[C@H](C(=O)N[C@@H](CC(=O)O)C(N)=O)[C@@H](C)O)[C@@H](C)CC)[C@@H](C)O)[C@@H](C)CC)[C@@H](C)CC)NC(=O)[C@H](CC(=O)O)NC(=O)[C@H](CC(C)C)NC(=O)[C@H]([C@@H](C)CC)NC1=O` [Example 97] (H-H[Aib]DGSFSDE[Nle][dF]DILDKKAAKDFINWLIQTKITD-NH2; lactam 12-16; N-terminus and C-terminus assumed): in assay [1], the Emax (commonly the size of the effect at its maximum, as opposed to the concentration needed) is 101% and the EC50 is 0.00316 nM. In assay [2], the Emax was determined as 96.6% and the EC50 was 0.316 nM.

On to `CCCC[C@H](NC(=O)[C@H](CCC(=O)O)NC(=O)[C@H](CC(=O)O)NC(=O)[C@H](CO)NC(=O)[C@H](Cc1ccccc1)NC(=O)[C@H](CO)NC(=O)CNC(=O)[C@H](CC(=O)O)NC(=O)C(C)(C)NC(=O)[C@@H](N)Cc1c[nH]cn1)C(=O)N[C@H](Cc1ccccc1)C(=O)N[C@H](C(=O)N[C@H](C(=O)N[C@@H](CC(C)C)C(=O)N[C@@H](CC(=O)O)C(=O)N[C@@H](CC(C)C)C(=O)N[C@H]1CCC(=O)NCCCC[C@@H](C(=O)N[C@@H](CC(=O)O)C(=O)N[C@@H](Cc2ccccc2)C(=O)N[C@H](C(=O)N[C@@H](CC(N)=O)C(=O)N[C@@H](Cc2c[nH]c3ccccc23)C(=O)N[C@@H](CC(C)C)C(=O)N[C@H](C(=O)N[C@@H](CCC(N)=O)C(=O)N[C@H](C(=O)N[C@@H](CCCCN)C(=O)N[C@H](C(=O)N[C@H](C(=O)N[C@@H](CC(=O)O)C(N)=O)[C@@H](C)O)[C@@H](C)CC)[C@@H](C)O)[C@@H](C)CC)[C@@H](C)CC)NC(=O)[C@H](C)NC(=O)[C@H](C)NC1=O)[C@@H](C)CC)[C@@H](C)O` [Example 98] (H-H[Aib]DGSFSDE[Nle][dF]TILDLEAAKDFINWLIQTKITD-NH2; lactam 17-20; C-terminus assumed), for which the results for the maximal effect (Emax) in assay [1] and in assay [2] were 101% and 96%, respectively. Besides, the EC50 in assay [1] was 0.00631 nM; in assay [2], 20 nM.

In the case of `CCCC[C@H](NC(=O)[C@H](CCC(=O)O)NC(=O)[C@H](CC(=O)O)NC(=O)[C@H](CO)NC(=O)[C@H](Cc1ccccc1)NC(=O)[C@H](CO)NC(=O)CNC(=O)[C@H](CC(=O)O)NC(=O)C(C)(C)NC(=O)[C@@H](N)Cc1c[nH]cn1)C(=O)N[C@H](Cc1ccccc1)C(=O)N[C@H](C(=O)N[C@H](C(=O)N[C@@H](CC(C)C)C(=O)N[C@@H](CC(=O)O)C(=O)N[C@@H](CC(C)C)C(=O)N[C@@H](CCCCN)C(=O)N[C@@H](C)C(=O)N[C@@H](C)C(=O)N[C@@H](CCCCN)C(=O)N[C@@H](CC(=O)O)C(=O)N[C@@H](Cc1ccccc1)C(=O)N[C@H](C(=O)N[C@H]1CCC(=O)NCCCC[C@@H](C(=O)N[C@H](C(=O)N[C@@H](CCCCN)C(=O)N[C@H](C(=O)N[C@H](C(=O)N[C@@H](CC(=O)O)C(N)=O)[C@@H](C)O)[C@@H](C)CC)[C@@H](C)O)NC(=O)[C@H]([C@@H](C)CC)NC(=O)[C@H](CC(C)C)NC(=O)[C@H](Cc2c[nH]c3ccccc23)NC1=O)[C@@H](C)CC)[C@@H](C)CC)[C@@H](C)O` [Example 99] (H-H[Aib]DGSFSDE[Nle][dF]TILDLKAAKDFIEWLIKTKITD-NH2; lactam 24-28 (inferred); C-terminus assumed), in assay [1], the maximal response (Emax) is 101% and the EC50 is 0.00501 nM. Moreover, in assay [2], the maximum response (Emax) came out at 97.1% and the EC50 is 2.51 nM.

`CCCC[C@H](NC(=O)[C@H](CCC(=O)O)NC(=O)[C@H](CC(=O)O)NC(=O)[C@H](CO)NC(=O)[C@H](Cc1ccccc1)NC(=O)[C@H](CO)NC(=O)CNC(=O)[C@H](CC(=O)O)NC(=O)C(C)(C)NC(=O)[C@@H](N)Cc1c[nH]cn1)C(=O)N[C@H](Cc1ccccc1)C(=O)N[C@H](C(=O)N[C@H](C(=O)N[C@@H](CC(C)C)C(=O)N[C@@H](CC(=O)O)C(=O)N[C@@H](CC(C)C)C(=O)N[C@@H](CCCCN)C(=O)N[C@@H](C)C(=O)N[C@@H](C)C(=O)N[C@@H](CCCCN)C(=O)N[C@@H](CC(=O)O)C(=O)N[C@@H](Cc1ccccc1)C(=O)N[C@H](C(=O)N[C@H]1CCCCNC(=O)C[C@@H](C(=O)N[C@H](C(=O)N[C@@H](CCCCN)C(=O)N[C@H](C(=O)N[C@H](C(=O)N[C@@H](CC(=O)O)C(N)=O)[C@@H](C)O)[C@@H](C)CC)[C@@H](C)O)NC(=O)[C@H]([C@@H](C)CC)NC(=O)[C@H](CC(C)C)NC(=O)[C@H](Cc2c[nH]c3ccccc23)NC1=O)[C@@H](C)CC)[C@@H](C)CC)[C@@H](C)O` [Example 100] (H-H[Aib]DGSFSDE[Nle][dF]TILDLKAAKDFIKWLIDTKITD-NH2; lactam 24-28; N-terminus and C-terminus assumed): the maximal effect (Emax) was found to be 100% in assay [1] and 96% in assay [2]. For the same molecule, the EC50 is 0.00501 nM in assay [1] and 0.794 nM in assay [2].

Regarding `CCCC[C@H](NC(=O)[C@H](CCC(=O)O)NC(=O)[C@H](CC(=O)O)NC(=O)[C@H](CO)NC(=O)[C@H](Cc1ccccc1)NC(=O)[C@H](CO)NC(=O)CNC(=O)[C@H](CC(=O)O)NC(=O)C(C)(C)NC(=O)[C@@H](N)Cc1c[nH]cn1)C(=O)N[C@H](Cc1ccccc1)C(=O)N[C@H](C(=O)N[C@H](C(=O)N[C@@H](CC(C)C)C(=O)N[C@@H](CC(=O)O)C(=O)N[C@@H](CC(C)C)C(=O)N[C@@H](CCCCN)C(=O)N[C@@H](C)C(=O)N[C@@H](C)C(=O)N[C@@H](CCCCN)C(=O)N[C@@H](CC(=O)O)C(=O)N[C@@H](Cc1ccccc1)C(=O)N[C@H](C(=O)N[C@@H](CC(N)=O)C(=O)N[C@@H](Cc1c[nH]c2ccccc12)C(=O)N[C@@H](CC(C)C)C(=O)N[C@H](C(=O)N[C@@H](CCC(N)=O)C(=O)N[C@H](C(=O)N[C@H]1CCCCNC(=O)CC[C@@H](C(N)=O)NC(=O)[C@H]([C@@H](C)O)NC(=O)[C@H]([C@@H](C)CC)NC1=O)[C@@H](C)O)[C@@H](C)CC)[C@@H](C)CC)[C@@H](C)CC)[C@@H](C)O` [Example 101] (H-H[Aib]DGSFSDE[Nle][dF]TILDLKAAKDFINWLIQTKITE-NH2; lactam 30-33 (inferred); C-terminus assumed), in assay [1], the Emax amounted to 101% and the EC50 was 0.0316 nM. In assay [2], the maximal effect (Emax) was 96.7% and the EC50 was 12.6 nM.

`CCCC[C@H](NC(=O)[C@H](CCC(=O)O)NC(=O)[C@H](CC(=O)O)NC(=O)[C@H](CO)NC(=O)[C@H](Cc1ccccc1)NC(=O)[C@H](CO)NC(=O)CNC(=O)[C@H](CC(=O)O)NC(=O)C(C)(C)NC(=O)[C@@H](N)Cc1c[nH]cn1)C(=O)N[C@H](Cc1ccccc1)C(=O)N[C@H](C(=O)N[C@H](C(=O)N[C@@H](CC(C)C)C(=O)N[C@@H](CC(=O)O)C(=O)N[C@H]1CCCCNC(=O)C[C@@H](C(=O)N[C@@H](CC(=O)O)C(=O)N[C@@H](Cc2ccccc2)C(=O)N[C@H](C(=O)N[C@@H](CC(N)=O)C(=O)N[C@@H](Cc2c[nH]c3ccccc23)C(=O)N[C@@H](CC(C)C)C(=O)N[C@H](C(=O)N[C@@H](CCC(N)=O)C(=O)N[C@H](C(=O)N[C@@H](CCCCN)C(=O)N[C@H](C(=O)N[C@H](C(=O)N[C@@H](CC(=O)O)C(N)=O)[C@@H](C)O)[C@@H](C)CC)[C@@H](C)O)[C@@H](C)CC)[C@@H](C)CC)NC(=O)[C@H](C)NC(=O)[C@H](C)NC(=O)[C@H](CCCCN)NC1=O)[C@@H](C)CC)[C@@H](C)O` [Example 103] (H-H[Aib]DGSFSDE[Nle][dF]TILDKKAADDFINWLIQTKITD-NH2; lactam 16-20): in assay [1], the Emax worked out at 100% and the EC50 was 0.00158 nM. Moreover, in assay [2], the Emax was 97% and the EC50 was 2 nM.

The values are drawn from patent US20240270809A1, “ORAL GLP RECEPTOR AGONISTS” (priority 2020, published 2024).
